# ChEMBL document CHEMBL5230136, “A review: Biologically active 3,4-heterocycle-fused coumarins” (Eur J Med Chem, 2021)
# Experiments:
# [1] = target: T1, D(4) dopamine receptor (Homo sapiens) (UniProt P21917); assay: Inhibition of human D4 receptor
# T1 sequence (whole entry): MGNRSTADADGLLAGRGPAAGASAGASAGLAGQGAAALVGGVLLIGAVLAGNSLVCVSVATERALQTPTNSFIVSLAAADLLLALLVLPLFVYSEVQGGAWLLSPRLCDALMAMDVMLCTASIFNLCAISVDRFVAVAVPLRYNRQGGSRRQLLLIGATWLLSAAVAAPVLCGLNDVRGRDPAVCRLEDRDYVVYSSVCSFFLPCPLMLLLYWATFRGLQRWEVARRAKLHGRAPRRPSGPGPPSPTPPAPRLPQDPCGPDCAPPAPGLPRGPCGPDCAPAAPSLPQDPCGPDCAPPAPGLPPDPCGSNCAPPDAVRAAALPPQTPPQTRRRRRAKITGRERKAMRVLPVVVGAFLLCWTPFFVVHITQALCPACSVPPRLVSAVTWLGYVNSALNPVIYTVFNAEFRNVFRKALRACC
# [2] = tested on: Botrytis cinerea; assay: Antifungal activity against Botrytis cinerea; assay type: functional, organism-based
# [3] = Antioxidant activity assessed as DPPH radical scavenging activity; assay type: functional
# [4] = tested on: Botrytis cinerea; assay: Antifungal activity against gray mold Botrytis cinerea assessed as reduction in fungal growth; assay type: functional; design: concentration or dose not given beside the values
# [5] = tested on: Rhizoctonia solani; assay: Antifungal activity against Rhizoctonia solani assessed as reduction in fungal growth; assay type: functional; design: concentration or dose not given beside the values
# [6] = tested on: Xanthomonas citri pv. malvacearum; assay: Antibacterial activity against Xanthomonas citri pv. malvacearum assessed as reduction in bacterial growth; assay type: functional; design: concentration or dose not given beside the values
# [7] = tested on: Erysiphe necator; assay: Antifungal activity against powdery mildew Erysiphe necator assessed as reduction in fungal growth; assay type: functional; design: concentration or dose not given beside the values
# [8] = tested on: Fusarium verticillioides; assay: Antifungal activity against Fusarium verticillioides assessed as reduction in fungal growth; assay type: functional; design: concentration or dose not given beside the values
# [9] = tested on: Phytophthora; assay: Antimicrobial activity against Phytophthora assessed as reduction in microbial growth; assay type: functional; design: concentration or dose not given beside the values
# [10] = tested on: Ehrlich; assay: cells; conditions: Mus musculus
# Description: Anticancer activity against mouse EAC cells assessed as reduction in cell viability
# [11] = Antiproliferative activity against human U87 cells assessed as reduction in cell viability by MTT assay; assay type: functional, cell-based, U-87MG ATCC; conditions: U-87 MG
# [12] = tested on: Pseudomonas aeruginosa; assay: Antibacterial activity against Pseudomonas aeruginosa assessed as zone of inhibition; assay type: functional
# [13] = tested on: Klebsiella aerogenes; assay: Antibacterial activity against Enterobacter aerogenes assessed as zone of inhibition; assay type: functional
# [14] = tested on: Bacillus subtilis; assay: Antibacterial activity against Bacillus subtilis assessed as zone of inhibition; assay type: functional
# [15] = tested on: Bacillus cereus; assay: Antibacterial activity against Bacillus cereus assessed as zone of inhibition; assay type: functional
# [16] = tested on: Staphylococcus aureus; assay: Antibacterial activity against Staphylococcus aureus assessed as zone of inhibition; assay type: functional
# [17] = tested on: Escherichia coli; assay: Antibacterial activity against Escherichia coli assessed as zone of inhibition; assay type: functional
# [18] = tested on: HCT-116/VM46; assay: cells; conditions: Homo sapiens
# [19] = tested on: Penicillium italicum; assay: Antifungal activity against Penicillium italicum assessed as zone of inhibition; assay type: functional
# [20] = tested on: Aspergillus ochraceus; assay: Antifungal activity against Aspergillus ochraceus assessed as zone of inhibition; assay type: functional
# [21] = tested on: Fusarium oxysporum; assay: Antifungal activity against Fusarium oxysporum assessed as zone of inhibition; assay type: functional
# [22] = tested on: Penicillium chrysogenum; assay: Antifungal activity against Penicillium chrysogenum assessed as zone of inhibition; assay type: functional
# [23] = tested on: Serratia marcescens; assay: Antibacterial activity against Serratia marcescens assessed as zone of inhibition; assay type: functional
# [24] = tested on: Proteus mirabilis; assay: Antibacterial activity against Proteus mirabilis assessed as zone of inhibition; assay type: functional
# [25] = tested on: Colletotrichum camelliae; assay: Antifungal activity against Colletotrichum camelliae; assay type: functional, organism-based
# [26] = tested on: Rhizoctonia solani; assay: Antifungal activity against Rhizoctonia solani at 150 uM; assay type: functional, organism-based
# [27] = tested on: Serratia marcescens; assay: Antibacterial activity against Serratia marcescens assessed as zone of inhibition at 20 mg/ml; assay type: functional; conditions: read-out: IZ
# [28] = tested on: Aspergillus niger; assay: Antifungal activity against Aspergillus niger assessed as zone of inhibition; assay type: functional
molecule,measurement,setting,value
CC(CN1CCC2c3ccccc3OC(=O)C2C1)N(C)C (stereo not given),ID50,[1],0.192 mg/kg
C=CCOc1ccc2c(c1)oc(=O)c1c(C)coc12,EC50,[2],1.72 µg/mL
COc1ccc(C2SCCNc3c2c(=O)oc2cc(O)ccc32)c(O)c1 (stereo not given),IC50,[3],120 µM
O=c1oc2c(ccc3ccccc32)c2c1C(c1ccccc1)NC(c1ccccc1)C2 (stereo not given),Activity,[4],32%
same,Activity,[5],30%
same,Activity,[6],9%
same,Activity,[7],68%
same,Activity,[8],18%
same,Activity,[9],83%
O=c1oc2ccccc2c2nc(-c3ccccc3)cc(-c3ccc([N+](=O)[O-])cc3)c12,IC50,[10],0.12 µM
CCOc1ccc2c(c1)oc(=O)c1c(C)c(C)oc12,EC50,[2],1.72 µg/mL
CCc1cccc(-n2c(N)c(C#N)c3c(c(=O)oc4ccc5ccccc5c43)c2=O)c1,IC50,[10],246 µM
N#CC1=C(N)Oc2c(c(=O)oc3ccccc23)C12C(=O)N(CCCCBr)c1ccccc12 (stereo not given),IC50,[11],78 µM
CC1(C)S[C@@H]2[C@H](NC(=O)[C@H](N)c3ccc(O)cc3)C(=O)N2[C@H]1C(=O)O [AMOXICILLIN],inhibition zone (IZ),[12],11 mm
same,inhibition zone (IZ),[13],10 mm
same,inhibition zone (IZ),[14],12 mm
same,inhibition zone (IZ),[15],20 mm
same,inhibition zone (IZ),[16],29 mm
same,inhibition zone (IZ),[17],36 mm
O=NN(CCCl)C(=O)NCCCl [CARMUSTINE],IC50,[11],3.9 µg/mL
CC[C@]1(O)C[C@@H]2CN(CCc3c([nH]c4ccccc34)[C@@](C(=O)OC)(c3cc4c(cc3OC)N(C)[C@H]3[C@@](O)(C(=O)OC)[C@H](OC(C)=O)[C@]5(CC)C=CCN6CC[C@]43[C@@H]65)C2)C1 [VINBLASTINE],IC50,[18],0.002 µM
Cc1ccc2c3c(c(=O)oc2c1)C(c1ccccc1)N(C)C(c1ccccc1)C3 (stereo not given),Activity,[4],0%
same,Activity,[5],15%
same,Activity,[6],0%
same,Activity,[7],0%
same,Activity,[8],22%
same,Activity,[9],0%
NYSTATIN,inhibition zone (IZ),[19],20 mm
same,inhibition zone (IZ),[20],24 mm
same,inhibition zone (IZ),[21],26 mm
same,inhibition zone (IZ),[22],24 mm
CC1(C)S[C@@H]2[C@H](NC(=O)[C@H](N)c3ccccc3)C(=O)N2[C@H]1C(=O)O [AMPICILLIN],inhibition zone (IZ),[15],25 mm
same,inhibition zone (IZ),[16],26 mm
same,inhibition zone (IZ),[23],26 mm
same,inhibition zone (IZ),[24],27 mm
COc1ccc2ccc(=O)oc2c1CC=C(C)C [OSTHOLE],EC50,[25],16.8 µg/mL
same,EC50,[2],6.45 µg/mL
same,EC50,[26],6.88 µg/mL
CCOc1ccc2c(c1)oc(=O)c1c(C)coc12,EC50,[26],8.87 µg/mL
CC(=O)N1C(c2ccccc2)Cc2c(c(=O)oc3cc(C)ccc23)C1c1ccccc1 (stereo not given),Activity,[4],11%
same,Activity,[5],0%
same,Activity,[6],18%
same,Activity,[7],52%
same,Activity,[8],10%
same,Activity,[9],83%
COc1ccc2c(c1)OC(=O)C1CN(CCN3CC4CCC(CC4)C3)CCC21 (stereo not given),ID50,[1],0.035 mg/kg
O=C1c2ccccc2-c2nc3c(c(-c4ccccc4)c21)c(=O)oc1ccccc13,IC50,[10],0.13 µM
CCOC(=O)c1nc2c3c(ncn2n1)Oc1c(c(=O)oc2ccccc12)C3c1ccc(Cl)cc1 (stereo not given),inhibition zone (IZ),[15],22 mm
same,inhibition zone (IZ),[20],19 mm
same,inhibition zone (IZ),[16],23 mm
same,zone of inhibition at 20000 µg/mL,[27],25 mm
same,inhibition zone (IZ),[23],25 mm
same,inhibition zone (IZ),[28],14 mm
same,inhibition zone (IZ),[24],23 mm
same,inhibition zone (IZ),[22],20 mm
COc1cc2c(cc1OC)C1CCN(CCN3CC4CCC(CC4)C3)CC1C(=O)O2 (stereo not given),ID50,[1],0.113 mg/kg
CC1C(C#N)=C(N)Oc2c1c(=O)oc1ccccc21 (stereo not given),inhibition zone (IZ),[15],19 mm
same,inhibition zone (IZ),[20],16 mm
same,inhibition zone (IZ),[16],18 mm
same,inhibition zone (IZ),[23],18 mm
same,inhibition zone (IZ),[24],20 mm
same,inhibition zone (IZ),[22],18 mm
CC1c2c(c3ccccc3oc2=O)Oc2ncn(C)c(=N)c21 (stereo not given),inhibition zone (IZ),[15],17 mm
same,inhibition zone (IZ),[20],19 mm
same,inhibition zone (IZ),[16],18 mm
same,inhibition zone (IZ),[23],19 mm
same,inhibition zone (IZ),[24],19 mm
same,inhibition zone (IZ),[22],15 mm
CC1c2c(c3ccccc3oc2=O)Oc2ncn3nc(CCl)nc3c21 (stereo not given),inhibition zone (IZ),[15],22 mm
same,inhibition zone (IZ),[20],18 mm
same,inhibition zone (IZ),[16],20 mm
same,inhibition zone (IZ),[23],21 mm
same,inhibition zone (IZ),[24],20 mm
same,inhibition zone (IZ),[22],19 mm
CC(=O)N1C(c2ccccc2)Cc2c(c(=O)oc3c2ccc2ccccc23)C1c1ccccc1 (stereo not given),Activity,[4],21%
same,Activity,[5],2%
same,Activity,[6],9%
same,Activity,[7],0%
same,Activity,[8],6%
same,Activity,[9],0%
